Measured values: patent US7741354B2, “Inhibitors of glutaminyl cyclase” (Probiodrug AG, priority 2006, dated 2010)

These compounds were tested against hQC (Homo sapiens, UniProt Q16769) (assay: Fluorometric (fluorescent) assay of hQC inhibition, IC50). Conditions: hQC inhibition; read-out: IC50.
Type: biochemical
Outline: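 QC activity followed at 30° C via pyroglutamyl aminopeptidase-coupled release of fluorophore, using either H-Gln-βNA (0.2 mM; ex/em 320/410 nm; 0.2 M Tris/HCl pH 8.0, 20 mM EDTA) or H-Gln-AMC (ex/em 380/460 nm; 0.05 M Tris/HCl pH 8.0, 5 mM EDTA).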

Sequence of hQC (Q16769 29-361): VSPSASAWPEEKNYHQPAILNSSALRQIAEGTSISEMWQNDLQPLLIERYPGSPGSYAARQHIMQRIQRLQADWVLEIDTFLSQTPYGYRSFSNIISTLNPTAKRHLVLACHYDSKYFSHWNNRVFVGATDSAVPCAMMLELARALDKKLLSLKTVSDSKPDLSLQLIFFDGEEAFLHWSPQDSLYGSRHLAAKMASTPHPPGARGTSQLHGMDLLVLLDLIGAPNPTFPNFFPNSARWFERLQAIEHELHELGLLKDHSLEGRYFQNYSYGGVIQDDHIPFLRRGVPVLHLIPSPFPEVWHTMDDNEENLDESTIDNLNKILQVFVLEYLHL

| SMILES | IC50 [µM] |
| --- | --- |
| O=c1c(C(Nc2ccc3[nH]cnc3c2)c2nnnn2CCc2cccs2)coc2ccccc12 (stereo not shown) [compound 122, 3-{(1H-Benzoimidazol-5-ylamino)-[1-(2-thiophen-2-yl-ethyl)-1H-tetrazol-5-yl]-methyl}-chromen-4-one] | 4.9 |
| CC(C)(C)n1nnnc1C(Nc1ccc2[nH]cnc2c1)c1csc2ccccc12 (stereo not shown) [compound 123] | 8.5 |
| COc1ccc(C(Nc2ccc3[nH]cnc3c2)c2nnnn2Cc2ccc(Cl)cc2)cc1F (stereo not shown) [compound 125, (1H-Benzoimidazol-5-yl)-[[1-(4-chloro-benzyl)-1H-tetrazol-5-yl]-(3-fluoro-4-methoxy-phenyl)-methyl]-amine] | 3.1 |
| c1ccc(C(c2ccccc2)n2nnnc2C(Nc2ccc3[nH]cnc3c2)c2cnc3ccccc3c2)cc1 (stereo not shown) [compound 126, [(1-Benzhydryl-1H-tetrazol-5-yl)-quinolin-3-yl-methyl]-(1H-benzoimidazol-5-yl)-amine] | 4.9 |
| COC(=O)c1cccc(C(Nc2ccc3[nH]cnc3c2)c2nnnn2-c2ccc(C(C)(C)C)cc2)c1 (stereo not shown) [compound 128, 3-{(1H-Benzoimidazol-5-ylamino)-[1-(4-tert-butyl-phenyl)-1H-tetrazol-5-yl]-methyl}-benzoic acid methyl ester] | 6.7 |
| Cc1cc(C(Nc2ccc3[nH]cnc3c2)c2nnnn2CC2CCCO2)cc(C)c1O (stereo not shown) [compound 131, 4-{(1H-Benzoimidazol-5-ylamino)-[1-(tetrahydro-furan-2-ylmethyl)-1H-tetrazol-5-yl]-methyl}-2,6-dimethyl-phenol] | 6.7 |
| CCOC(=O)C1CCCCC1n1nnnc1C(Nc1ccc2[nH]cnc2c1)c1ccc(OC)c(F)c1 (stereo not shown) [compound 132, 2-{5-[(1H-Benzoimidazol-5-ylamino)-(3-fluoro-4-methoxy-phenyl)-methyl]-tetrazol-1-yl}-cyclohexanecar-boxylic acid ethyl ester] | 8.5 |
| CCc1ccc(C(Nc2ccc3[nH]cnc3c2)c2nnnn2Cc2ccccc2)s1 (stereo not shown) [compound 133, (1H-Benzoimidazol-5-yl)-[(1-benzyl-1H-tetrazol-5-yl)-(5-ethyl-thiophen-2-yl)-methyl]-amine] | 3.1 |
| Clc1ccc(Cn2nnnc2C(Nc2ccc3[nH]cnc3c2)c2ccc(Cl)cc2)cc1 (stereo not shown) [compound 136, (1H-Benzoimidazol-5-yl)-[[1-(4-chloro-benzyl)-1H-tetrazol-5-yl]-(4-chloro-phenyl)-methyl]-amine] | 4 |
| Cc1cc(C)cc(C(Nc2ccc3[nH]cnc3c2)c2nnnn2CC(=O)N2CCc3ccccc3C2)c1 (stereo not shown) [compound 137, 2-{5-[(1H-Benzoimidazol-5-ylamino)-(3,5-dimethyl-phenyl)-methyl]-tetrazol-1-yl}-1-(3,4-dihydro-1H-isoquinolin-2-yl)-ethanone] | 4.9 |
| c1ccc(Oc2ccc(-n3nnnc3C(Nc3ccc4[nH]cnc4c3)c3ccc4c(c3)OCO4)cc2)cc1 (stereo not shown) [compound 139, {Benzo[1,3]dioxol-5-yl-[1-(4-phenoxy-phenyl)-1H-tetrazol-5-yl]-methyl}-(1H-benzoimidazol-5-yl)-amine] | 4 |
| CCCOc1cccc(C(Nc2ccc3[nH]cnc3c2)c2nnnn2CC2CCCO2)c1 (stereo not shown) [compound 141, (1H-Benzoimidazol-5-yl)-{(3-propoxy-phenyl)-[1-(tetrahydro-furan-2-ylmethyl)-1H-tetrazol-5-yl]-methyl}-amine] | 4 |
| Fc1ccc2c(C(Nc3ccc4[nH]cnc4c3)c3nnnn3CC3CCCO3)c[nH]c2c1 (stereo not shown) [compound 144, (1H-Benzoimidazol-5-yl)-{(6-fluoro-1H-indol-3-yl)-[1-(tetrahydro-furan-2-ylmethyl)-1H-tetrazol-5-yl]-methyl}-amine] | 5.8 |
| CCOC(=O)C1CCCCC1n1nnnc1C(Nc1ccc2[nH]cnc2c1)c1csc2ccccc12 (stereo not shown) [compound 145] | 1.3 |
| O=[N+]([O-])c1cc(C(Nc2ccc3[nH]cnc3c2)c2nnnn2CC2CCCO2)ccc1Cl (stereo not shown) [compound 146] | 3.1 |
| O=[N+]([O-])c1cc(C(Nc2ccc3[nH]cnc3c2)c2nnnn2Cc2ccccc2Cl)ccc1Cl (stereo not shown) [compound 148, (1H-Benzoimidazol-5-yl)-[[1-(2-chloro-benzyl)-1H-tetrazol-5-yl]-(4-chloro-3-nitro-phenyl)-methyl]-amine] | 1.3 |
| CC(Cc1ccc2c(c1)OCO2)C(Nc1ccc2[nH]cnc2c1)c1nnnn1CC(=O)OC(C)(C)C (stereo not shown) [compound 149, {5-[3-Benzo[1,3]dioxol-5-yl-1-(1H-benzoimidazol-5-ylamino)-2-methyl-propyl]-tetrazol-1-yl}-acetic acid tert-butyl ester] | 4.9 |
| CCOC(=O)C1CCCCC1n1nnnc1C(Nc1ccc2[nH]cnc2c1)c1ccc(SC)cc1 (stereo not shown) [compound 150] | 4 |
| COc1ccccc1C(Nc1ccc2[nH]cnc2c1)c1nnnn1Cc1ccccc1 (stereo not shown) [compound 151] | 5.8 |
| Oc1cccc(C(Nc2ccc3[nH]cnc3c2)c2nnnn2CC2CCCO2)c1 (stereo not shown) [compound 152] | 9.4 |
| COc1ccccc1C(Nc1ccc2[nH]cnc2c1)c1nnnn1Cc1ccccc1Cl (stereo not shown) [compound 153] | 3.1 |
| COC(=O)c1cccc(C(Nc2ccc3[nH]cnc3c2)c2nnnn2CC2CCCO2)c1 (stereo not shown) [compound 154, 3-{(1H-Benzoimidazol-5-ylamino)-[1-(tetrahydro-furan-2-ylmethyl)-1H-tetrazol-5-yl]-methyl}-benzoic acid methyl ester] | 5.8 |
| CCOC(=O)C1CCCCC1n1nnnc1C(Nc1ccc2[nH]cnc2c1)c1ccc(C)c(C)c1 (stereo not shown) [compound 155] | 4.9 |
| c1ccc(C(c2ccccc2)n2nnnc2C(Nc2ccc3[nH]cnc3c2)c2cccnc2)cc1 (stereo not shown) [compound 158, [(1-Benzhydryl-1H-tetrazol-5-yl)-pyridin-3-yl-methyl]-(1H-benzoimidazol-5-yl)-amine] | 9.4 |
| Clc1ccc(Cn2nnnc2C(Nc2ccc3[nH]cnc3c2)c2ccc3c(c2)OCO3)cc1 (stereo not shown) [compound 160, {Benzo[1,3]dioxol-5-yl-[1-(4-chloro-benzyl)-1H-tetrazol-5-yl]-methyl}-(1H-benzoimidazol-5-yl)-amine] | 0.4 |
| C/C=C/C=C/C(Nc1ccc2[nH]cnc2c1)c1nnnn1CCc1cccs1 (stereo not shown) [compound 161, (1H-Benzoimidazol-5-yl)-{(2E,4E)-1-[1-(2-thiophen-2-yl-ethyl)-1H-tetrazol-5-yl]-hexa-2,4-dienyl}-amine] | 5.8 |

The remaining compounds from weak to strong by IC50, led by results:

| IC50 [µM] | SMILES |
| --- | --- |
| 9.4 | CC1(C)OCC(Cn2nnnc2C(Nc2ccc3[nH]cnc3c2)c2ccc3c(c2)OCO3)O1 (stereo not shown) [compound 138, {Benzo[1,3]dioxol-5-yl-[1-(2,2-dimethyl-[1,3]dioxolan-4-ylmethyl)-1H-tetrazol-5-yl]-methyl}-(1H-benzoimidazol-5-yl)-amine] |
| 9.4 | O=c1c(C(Nc2ccc3[nH]cnc3c2)c2nnnn2CC2CCCO2)coc2ccccc12 (stereo not shown) [compound 159, 3-{(1H-Benzoimidazol-5-ylamino)-[1-(tetrahydro-furan-2-ylmethyl)-1H-tetrazol-5-yl]-mthyl}-chromen-4-one] |
| 8.5 | CCc1ccc(C(Nc2ccc3[nH]cnc3c2)c2nnnn2CC2CCCO2)s1 (stereo not shown) [compound 129, (1H-Benzoimidazol-5-yl)-{(5-ethyl-thiophen-2-yl)-[1-(tetrahydro-furan-2-ylmethyl)-1H-tetrazol-5-yl]-methyl}-amine] |
| 8.5 | Clc1ccccc1Cn1nnnc1C(Nc1ccc2[nH]cnc2c1)c1cccnc1 (stereo not shown) [compound 135, (1H-Benzoimidazol-5-yl)-{[1-(2-chloro-benzyl)-1H-tetrazol-5-yl]-pyridin-3-yl-methyl}-amine] |
| 7.6 | CSc1ccc(C(Nc2ccc3[nH]cnc3c2)c2nnnn2CC2COC(C)(C)O2)cc1 (stereo not shown) [compound 130, (1H-Benzoimidazol-5-yl)-[[1-(2,2-dimethyl-[1,3]dioxolan-4-ylmethyl)-1H-tetrazol-5-yl]-(4-methylsulfanyl-phenyl)-methyl]-amine] |
| 6.7 | c1nc2cc(NC(c3ccc(N4CCCC4)cc3)c3nnnn3CC3CCCO3)ccc2[nH]1 (stereo not shown) [compound 134, (1H-Benzoimidazol-5-yl)-{(4-pyrolidin-1-yl-phenyl)-[1-(tetrahydro-furan-2-ylmethyl)-1H-tetrazol-5-yl]-methyl}-amine] |
| 6.7 | CSc1ccc(C(Nc2ccc3[nH]cnc3c2)c2nnnn2CC2CCCO2)cc1 (stereo not shown) [compound 140, (1H-Benzoimidazol-5-yl)-{(4-methylsulfanyl-phenyl)-[1-(tetrahydro-furan-2-ylmethyl)-1H-tetrazol-5-yl]-methyl}-amine] |
| 5.8 | Cc1cc(C)cc(C(Nc2ccc3[nH]cnc3c2)c2nnnn2Cc2ccccc2)c1 (stereo not shown) [compound 124, (1H-Benzoimidazol-5-yl)-[(1-benzyl-1H-tetrazol-5-yl)-(3,5-dimethyl-phenyl)-methyl]-amine] |
| 5.8 | CCOC(=O)C1CCCCC1n1nnnc1C(Nc1ccc2[nH]cnc2c1)c1cc(C)cc(C)c1 (stereo not shown) [compound 157] |
| 4.9 | OCc1ccc(C(Nc2ccc3[nH]cnc3c2)c2nnnn2-c2ccccc2OCc2ccccc2)o1 (stereo not shown) [compound 143, (5-{(1H-Benzoimidazol-5-ylamino)-[1-(2-benzyloxy-phenyl)-1H-tetrazol-5-yl]-methyl}-furan-2-yl)-methanol] |
| 4.9 | CC1(C)OCC(Cn2nnnc2C(Nc2ccc3[nH]cnc3c2)c2cnc3ccccc3c2)O1 (stereo not shown) [compound 156, (1H-Benzoimidazol-5-yl)-{[1-(2,2-dimethyl-[1,3]dioxolan-4-ylmethyl)-1H-tetrazol-5-yl]-quinolin-3-yl-methyl}-amine] |
| 3.1 | Clc1ccc(C(Nc2ccc3[nH]cnc3c2)c2nnnn2Cc2ccccc2Cl)cc1 (stereo not shown) [compound 127, (1H-Benzoimidazol-5-yl)-[[1-(2-chloro-benzyl)-1H-tetrazol-5-yl]-(4-chloro-phenyl)-methyl]-amine] |
| 1.3 | c1ccc(Cn2nnnc2C(Nc2ccc3[nH]cnc3c2)c2ccc3nsnc3c2)cc1 (stereo not shown) [compound 147] |
| 0.4 | COc1ccc(C(Nc2ccc3[nH]cnc3c2)c2nnnn2Cc2cccnc2)cc1Br (stereo not shown) [compound 142, (1H-Benzoimidazol-5-yl)-[(3-bromo-4-methoxy-phenyl)-(1-pyridin-3-ylmethyl-1H-tetrazol-5-yl)-methyl]-amine] |
